Measured values as given in patent US20240239861A1, “GLUCAGON-RECEPTOR SELECTIVE POLYPEPTIDES AND METHODS OF USE THEREOF” (i2O Therapeutics, Inc., priority 2016, published 2024).
Where a SMILES comes first, the peptide text is derived from it. [ ]: non-standard residue; d: D form. Aib = CC(C)(N)C(=O)O

Assays:
[1] = Solubility in water or saline at room temperature, visual inspection; format: physicochemical; conditions: Solubility in water mg/ml
Excerpt: Samples were visually inspected for clarity of the sample, any appearance of turbidity or haziness.

[2] = target: human GLP-1R (Homo sapiens, UniProt P43220); experiment: Peptide-receptor mediated cAMP accumulation (LANCE Ultra cAMP) in CHO-K1 cells transfected with human GLP-1R; format: cell-based
[3] = Stability in water or saline at 37° C. and room temperature, 30 days, LC/MS and HPLC purity; format: physicochemical
Excerpt: Samples were withdrawn at a regular interval for 30 days and analyzed by LC/MS and HPLC for determination of purity and mass of the degradation product.

[4] = FIGURE 2A
[5] = FIGURE 2B
[6] = in vivo; conditions: male, rat
Method: Peptides were formulated in sterile saline and administered as a 3-hour intravenous infusion to non-fasted male Wistar Han or Sprague-Dawley rats (n=3 per group) via jugular vein cannula at a final dose of 0.3 or 0.1 mg/kg. […] Plasma was prepared by centrifugation and stored at −80° C. until analysis.
Protein Precipitation: All 96-well plates were coated with a blocking agent to mitigate non-specific binding of peptides. Plasma samples (75 uL) were added to a 96-well plate containing 200 uL of 2:1 ethanol:acetonitrile containing 0.1% TFA and mixed well via aspiration. Plates were capped, vortex-mixed and centrifuged. Supernatants (215 uL) were transferred to a clean 96-well plate, evaporated to dryness under nitrogen flow and then reconstituted in 75 μL of 20% acetonitrile in water containing 0.10% formic acid.
Solid-Phase Extraction: Samples were diluted 3-fold with 5% NH4OH (aq) and loaded onto an Oasis MAX microElution plate (Waters Corp, Milford, MA) that had been pre-conditioned with 200 uL each of methanol and 5% NH4OH (aq). The plate was washed with 200 uL 5% NH4OH (aq), followed by 200 uL 20% acetonitrile in water. […] Samples were reconstituted in 80 uL 0.1% formic acid in water.
All calibration standards were prepared in control rat plasma containing K2EDTA and protease inhibitor cocktail. […] Samples were injected onto a 2.1×50 mm reverse phase C18 analytical column, typically a Waters ACQUITY UPLC™ HSS T3, 1.8 μm (Waters Corporation, Milford, MA) or similar. […] Typical flow rates were 600 L/min. The column temperature was held constant at 40 or 45° C. Peptides were quantified my monitoring one or more product ions produced from a multiply charged parent ion.

[7] = target: human GCGR (Homo sapiens, UniProt P47871); experiment: Peptide-receptor mediated cAMP accumulation (LANCE Ultra cAMP) in CHO-K1 cells transfected with human GCGR; format: cell-based
[8] = hGLP1 pEC50 (cAMP mean (n = 3): 11 point curve starting at 1 nM, Table 3)
[9] = hGLP1 pEC50 (cAMP) mean (n = 3): 11 point curve starting at 1 nM, Table 2B

human GLP-1R, sequence (P43220 24-463): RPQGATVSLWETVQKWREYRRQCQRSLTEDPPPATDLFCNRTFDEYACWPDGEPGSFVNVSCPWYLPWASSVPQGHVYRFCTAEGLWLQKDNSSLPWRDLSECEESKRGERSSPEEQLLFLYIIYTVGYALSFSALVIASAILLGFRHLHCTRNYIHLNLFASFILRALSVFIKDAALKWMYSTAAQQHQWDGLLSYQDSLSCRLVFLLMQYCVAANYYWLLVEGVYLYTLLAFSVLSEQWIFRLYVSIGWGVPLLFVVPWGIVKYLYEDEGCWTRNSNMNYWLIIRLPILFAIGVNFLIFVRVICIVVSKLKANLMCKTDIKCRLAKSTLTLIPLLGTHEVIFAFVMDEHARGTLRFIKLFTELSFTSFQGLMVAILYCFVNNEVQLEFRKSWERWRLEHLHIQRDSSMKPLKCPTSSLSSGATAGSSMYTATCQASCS
human GCGR, sequence (P47871 26-477): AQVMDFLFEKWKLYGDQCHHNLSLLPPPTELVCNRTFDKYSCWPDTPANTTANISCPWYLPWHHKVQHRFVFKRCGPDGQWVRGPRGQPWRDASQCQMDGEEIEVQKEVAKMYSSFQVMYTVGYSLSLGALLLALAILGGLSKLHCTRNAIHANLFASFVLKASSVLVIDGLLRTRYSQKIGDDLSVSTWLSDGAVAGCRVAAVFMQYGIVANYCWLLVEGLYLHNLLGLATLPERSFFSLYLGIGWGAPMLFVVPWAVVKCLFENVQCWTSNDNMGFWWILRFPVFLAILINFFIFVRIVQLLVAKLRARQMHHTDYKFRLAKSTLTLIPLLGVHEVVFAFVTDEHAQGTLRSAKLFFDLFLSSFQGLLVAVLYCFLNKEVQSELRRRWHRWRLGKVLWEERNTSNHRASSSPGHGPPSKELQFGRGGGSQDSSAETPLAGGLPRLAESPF

Structure (SMILES) | solubility [1] | EC50 [2, 8] | EC50 [2, 9] | Stability 1 mg/ml in water at 37 degC [3] | CL [4] | EC50 ([2]; hGLP1 pEC50 (cAMP) mean (n = 9): 11 point curve starting at 500 uM, Table 2A) | CL [5] | clearance [6] | EC50 ([7]; Table 2A) | hGCGR pEC50 (cAMP mean (n = 3): 11 point curve starting at 1 nM) ([7]; Table 3) | EC50 ([7]; Table 2B)
CC(C)C[C@H](NC(=O)[C@H](Cc1c[nH]c2ccccc12)NC(=O)[C@H](CCCCN)NC(=O)[C@@H](NC(=O)[C@H](Cc1ccccc1)NC(=O)[C@H](CCC(=O)O)NC(=O)[C@H](CCC(N)=O)NC(=O)[C@H](C)NC(=O)[C@H](CCCNC(=N)N)NC(=O)[C@H](CCCCN)NC(=O)C(C)(C)NC(=O)[C@H](CC(=O)O)NC(=O)[C@H](CC(C)C)NC(=O)[C@H](Cc1c[nH]c2ccccc12)NC(=O)[C@H](CCCCN)NC(=O)[C@H](CO)NC(=O)[C@H](Cc1ccc(O)cc1)NC(=O)[C@H](CC(=O)O)NC(=O)[C@H](CO)NC(=O)[C@@H](NC(=O)[C@H](Cc1ccccc1)NC(=O)[C@@H](NC(=O)CNC(=O)[C@H](Cc1c[nH]cn1)NC(=O)[C@H](CO)NC(=O)[C@@H](N)Cc1ccc(O)cc1)[C@@H](C)O)[C@@H](C)O)C(C)C)C(=O)N[C@@H](CCC(=O)O)C(=O)N[C@@H](CC(=O)O)C(=O)N[C@@H](CCC(=O)O)C(=O)O [Compound A102] (H-YSHGTFTSDYSKWLD[Aib]KRAQEFVKWLEDE-OH; N-terminus assumed) | > 200 mg/mL | > 1 nM | > 1 nM | >51% | 5.83 ± 0.378 L/h/kg | – | – | – | – | – | –
CC(C)C[C@H](NC(=O)[C@H](Cc1ccc(O)cc1)NC(=O)[C@H](CCCCN)NC(=O)[C@H](CO)NC(=O)[C@H](Cc1ccc(O)cc1)NC(=O)[C@H](CC(=O)O)NC(=O)[C@H](CO)NC(=O)[C@@H](NC(=O)[C@H](Cc1ccccc1)NC(=O)[C@@H](NC(=O)CNC(=O)[C@H](CCC(N)=O)NC(=O)[C@H](CO)NC(=O)[C@@H](N)Cc1c[nH]c2ccccc12)[C@@H](C)O)[C@@H](C)O)C(=O)N[C@@H](CC(=O)O)C(=O)NC(C)(C)C(=O)N[C@@H](CCCCN)C(=O)N[C@@H](CCCNC(=N)N)C(=O)N[C@@H](C)C(=O)N[C@@H](CCC(N)=O)C(=O)N[C@@H](CCC(=O)O)C(=O)N[C@@H](Cc1ccccc1)C(=O)N[C@H](C(=O)NC(C)(C)C(=O)N[C@@H](Cc1c[nH]c2ccccc12)C(=O)N[C@@H](CC(C)C)C(=O)N[C@@H](CCC(=O)O)C(=O)N[C@@H](CC(=O)O)C(=O)N[C@@H](CCC(=O)O)C(=O)N1CCC[C@H]1C(=O)N[C@@H](CO)C(=O)N[C@@H](CO)C(=O)NCC(=O)N[C@@H](C)C(=O)N1CCC[C@H]1C(=O)N1CCC[C@H]1C(=O)N1CCC[C@H]1C(=O)N[C@@H](CO)C(=O)O)C(C)C [Compound A6] (H-WSQGTFTSDYSKYLD[Aib]KRAQEFV[Aib]WLEDEPSSGAPPPS-OH; N-terminus assumed) | > 200 mg/mL | 5010 nM | – | >80% | – | 5010 nM | 0.552 ± 0.012 L/h/kg | 0.744 L/h/kg | 0.002 nM | 11.7 | –
CC(C)C[C@H](NC(=O)[C@H](Cc1c[nH]c2ccccc12)NC(=O)[C@H](CCCCN)NC(=O)[C@@H](NC(=O)[C@H](Cc1ccccc1)NC(=O)[C@H](CCC(=O)O)NC(=O)[C@H](CCC(N)=O)NC(=O)[C@H](C)NC(=O)[C@H](CCCNC(=N)N)NC(=O)[C@H](CCCCN)NC(=O)C(C)(C)NC(=O)[C@H](CC(=O)O)NC(=O)[C@H](CC(C)C)NC(=O)[C@H](Cc1ccc(O)cc1)NC(=O)[C@H](CCCCN)NC(=O)[C@H](CO)NC(=O)[C@H](Cc1c[nH]cn1)NC(=O)[C@H](CC(=O)O)NC(=O)[C@H](CO)NC(=O)[C@@H](NC(=O)[C@H](Cc1ccccc1)NC(=O)[C@@H](NC(=O)CNC(=O)[C@H](Cc1c[nH]cn1)NC(=O)CNC(=O)[C@@H](N)Cc1ccc(O)cc1)[C@@H](C)O)[C@@H](C)O)C(C)C)C(=O)N[C@@H](CCC(=O)O)C(=O)N[C@@H](CC(=O)O)C(=O)N[C@@H](CCC(=O)O)C(=O)O [Compound A101] (H-YGHGTFTSDHSKYLD[Aib]KRAQEFVKWLEDE-OH; N-terminus assumed) | > 200 mg/mL | > 1 nM | > 1 nM | >50% | 5.3 ± 0.54 L/h/kg | – | – | – | – | – | 0.00501 nM
CC(C)C[C@H](NC(=O)[C@H](Cc1ccc(O)cc1)NC(=O)[C@H](CCCCN)NC(=O)[C@H](CO)NC(=O)[C@H](Cc1ccc(O)cc1)NC(=O)[C@H](CC(=O)O)NC(=O)[C@H](CO)NC(=O)[C@@H](NC(=O)[C@H](Cc1ccccc1)NC(=O)[C@@H](NC(=O)CNC(=O)[C@H](Cc1c[nH]cn1)NC(=O)[C@H](CO)NC(=O)[C@@H](N)Cc1ccc(O)cc1)[C@@H](C)O)[C@@H](C)O)C(=O)N[C@@H](CC(=O)O)C(=O)NC(C)(C)C(=O)N[C@@H](CCCCN)C(=O)N[C@@H](CCCNC(=N)N)C(=O)N[C@@H](C)C(=O)N[C@@H](CCC(N)=O)C(=O)N[C@@H](CCC(=O)O)C(=O)N[C@@H](Cc1ccccc1)C(=O)N[C@H](C(=O)NC(C)(C)C(=O)N[C@@H](Cc1c[nH]c2ccccc12)C(=O)N[C@@H](CC(C)C)C(=O)N[C@@H](CCC(=O)O)C(=O)N[C@@H](CC(=O)O)C(=O)N[C@@H](CCC(=O)O)C(=O)N1CCC[C@H]1C(=O)N[C@@H](CO)C(=O)N[C@@H](CO)C(=O)NCC(=O)N[C@@H](C)C(=O)N1CCC[C@H]1C(=O)N1CCC[C@H]1C(=O)N1CCC[C@H]1C(=O)N[C@@H](CO)C(=O)O)C(C)C [Compound A99] | > 200 mg/mL | > 1 nM | > 1 nM | >64% | 1.34 ± 0.114 L/h/kg | – | – | 1.38 L/h/kg | – | – | –
CC(C)C[C@H](NC(=O)[C@H](Cc1ccc(O)cc1)NC(=O)[C@H](CCCCN)NC(=O)[C@H](CO)NC(=O)[C@H](Cc1ccc(O)cc1)NC(=O)[C@H](CC(=O)O)NC(=O)[C@H](CO)NC(=O)[C@@H](NC(=O)[C@H](Cc1ccccc1)NC(=O)[C@@H](NC(=O)CNC(=O)[C@H](Cc1c[nH]cn1)NC(=O)[C@H](CO)NC(=O)[C@@H](N)Cc1ccc(O)cc1)[C@@H](C)O)[C@@H](C)O)C(=O)N[C@@H](CC(=O)O)C(=O)NC(C)(C)C(=O)N[C@@H](CCCCN)C(=O)N[C@@H](CCCNC(=N)N)C(=O)N[C@@H](C)C(=O)N[C@@H](CCC(N)=O)C(=O)N[C@@H](CCC(=O)O)C(=O)N[C@@H](Cc1ccccc1)C(=O)N[C@H](C(=O)NC(C)(C)C(=O)N[C@@H](Cc1c[nH]c2ccccc12)C(=O)N[C@@H](CC(C)C)C(=O)N[C@@H](CCC(=O)O)C(=O)N[C@@H](CC(=O)O)C(=O)N[C@@H](CCC(=O)O)C(=O)O)C(C)C [Compound A100] | > 200 mg/mL | > 1 nM | > 1 nM | >69% | 7.2 ± 2.34 L/h/kg | – | – | – | – | – | –
CC(C)C[C@H](NC(=O)[C@H](Cc1c[nH]c2ccccc12)NC(=O)[C@H](CCCCN)NC(=O)[C@@H](NC(=O)[C@H](Cc1ccccc1)NC(=O)[C@H](CCC(=O)O)NC(=O)[C@H](CCC(N)=O)NC(=O)[C@H](C)NC(=O)[C@H](CCCNC(=N)N)NC(=O)[C@H](CCCCN)NC(=O)[C@H](CO)NC(=O)[C@H](CCC(=O)O)NC(=O)[C@H](CC(C)C)NC(=O)[C@H](CC(C)C)NC(=O)[C@H](CCCNC(=N)N)NC(=O)[C@@H](NC(=O)[C@H](Cc1ccc(O)cc1)NC(=O)[C@H](CC(=O)O)NC(=O)[C@H](CO)NC(=O)[C@@H](NC(=O)[C@H](Cc1ccccc1)NC(=O)[C@@H](NC(=O)CNC(=O)[C@H](Cc1c[nH]cn1)NC(=O)[C@H](CO)NC(=O)[C@@H](N)Cc1ccc(O)cc1)[C@@H](C)O)[C@@H](C)O)[C@@H](C)O)C(C)C)C(=O)N[C@@H](CCC(=O)O)C(=O)N[C@@H](CC(=O)O)C(=O)N[C@@H](CCC(=O)O)C(=O)N1CCC[C@H]1C(=O)N[C@@H](CO)C(=O)N[C@@H](CO)C(=O)NCC(=O)N[C@@H](C)C(=O)N1CCC[C@H]1C(=O)N1CCC[C@H]1C(=O)N1CCC[C@H]1C(=O)N[C@@H](CO)C(=O)O [Compound A98] (H-YSHGTFTSDYTRLLESKRAQEFVKWLEDEPSSGAPPPS-OH; N-terminus assumed) | > 200 mg/mL | > 1 nM | > 1 nM | >75% | 3.09 ± 0.804 L/h/kg | – | – | – | – | – | –
CC(C)C[C@H](NC(=O)[C@H](Cc1ccc(O)cc1)NC(=O)[C@H](CCCCN)NC(=O)[C@H](CO)NC(=O)[C@H](Cc1ccc(O)cc1)NC(=O)[C@H](CC(=O)O)NC(=O)[C@H](CO)NC(=O)[C@@H](NC(=O)[C@H](Cc1ccccc1)NC(=O)[C@@H](NC(=O)CNC(=O)[C@H](Cc1c[nH]cn1)NC(=O)[C@H](CO)NC(=O)[C@@H](N)Cc1ccc(O)cc1)[C@@H](C)O)[C@@H](C)O)C(=O)N[C@@H](CC(=O)O)C(=O)N[C@@H](C)C(=O)N[C@@H](C)C(=O)N[C@@H](CCCNC(=N)N)C(=O)N[C@@H](C)C(=O)N[C@@H](CCC(N)=O)C(=O)N[C@@H](CCC(=O)O)C(=O)N[C@@H](Cc1ccccc1)C(=O)N[C@H](C(=O)N[C@@H](CCCCN)C(=O)N[C@@H](Cc1c[nH]c2ccccc12)C(=O)N[C@@H](CC(C)C)C(=O)N[C@@H](CCC(=O)O)C(=O)N[C@@H](CC(=O)O)C(=O)N[C@@H](CCC(=O)O)C(=O)N1CCC[C@H]1C(=O)N[C@@H](CO)C(=O)N[C@@H](CO)C(=O)NCC(=O)N[C@@H](C)C(=O)N1CCC[C@H]1C(=O)N1CCC[C@H]1C(=O)N1CCC[C@H]1C(=O)N[C@@H](CO)C(=O)O)C(C)C [Compound A97] (H-YSHGTFTSDYSKYLDAARAQEFVKWLEDEPSSGAPPPS-OH; N-terminus assumed) | > 200 mg/mL | > 1 nM | > 1 nM | >59% | – | – | – | 1.13 L/h/kg | – | – | –
